# Active and inactive are the calls of the source. The rule behind the calls is not given here.
# Experiments:
# [1] = Cytotoxicity against human U87 cells after 72 hrs by MTT assay; format: functional, cell-based, U-87MG ATCC
# [2] = target: T1, DNA-binding protein inhibitor ID-1 (Homo sapiens) (UniProt P41134); test: Inhibition of ID1 in human U87 cells at 100 uM by luciferase reporter gene assay; format: cell-based; settings: U-87MG ATCC
# T1 sequence (whole entry): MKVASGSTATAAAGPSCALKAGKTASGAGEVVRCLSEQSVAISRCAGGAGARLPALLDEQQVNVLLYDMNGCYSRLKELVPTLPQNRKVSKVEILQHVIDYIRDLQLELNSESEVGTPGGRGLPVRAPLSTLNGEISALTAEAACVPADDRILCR
# [3] = Toxicity in brine shrimp larvae assessed as mortality after 24 hrs by microtiter plate analysis; format: organism-based; settings: artemia salina, in vivo
# MCF7 [4] = test: Estrogenic activity in human MCF7 cells by luciferase reporter gene assay; format: functional, cell-based
# [5] = Cytotoxicity against mouse LLC cells after 72 hrs by MTT assay; format: functional, cell-based; settings: Lewis lung carcinoma
# HeLa = test: Cytotoxicity against human HeLa cells after 72 hrs by MTT assay; format: functional, cell-based
# SMMC-7721 = test: Cytotoxicity against human SMMC7721 cells after 72 hrs by MTT assay; format: functional, cell-based; settings: SMMC-7721, 72 h
# MCF7 [6] = test: Estrogenic activity in human MCF7 cells at 5 uM by luciferase reporter gene assay; format: functional, cell-based
# MCF7 [7] = test: Estrogenic activity in human MCF7 cells at 1 uM by luciferase reporter gene assay; format: functional, cell-based
# [8] = Homo sapiens, U-87 MG, 72 h, read-out: IC50
Compound,inhibition [2],IC50 ([1]; u-87mg atcc),"IC50 [1, 8]",also measured
COc1cc(C=O)c(-c2c(C[C@H](C)C(C)=O)cc3c(c2OC)OCO3)c(OC)c1OC,46.1%,Not Active,,
COc1ccc([C@H]2OC[C@]3(O)[C@@H](c4ccc(OC)c(O)c4)OC[C@H]23)cc1O,,,,LC50 at 24 h [3]: > 100 µg/mL
C[C@]12CC[C@@H]3c4ccc(O)cc4CC[C@H]3[C@@H]1CC[C@@H]2O,,,,Activity (MCF7 [4]): Dose-dependent effect
COc1cc2c(c(OC)c1OC)-c1c(cc3c(c1OC)OCO3)C[C@H](C)[C@]1(CO1)[C@H]2OC(=O)c1ccccc1 [SCHISANDRIN A1],,,> 100 µM,IC50 [5]: > 100 µM; IC50 (HeLa): 50.8 µM; LC50 at 24 h [3]: 97.5 µg/mL; IC50 (SMMC-7721): > 100 µM
CC(=O)O[C@@H]1C[C@H](O)[C@@]23CO[C@@H](O)[C@]1(C)[C@@H]2C[C@@H](O)[C@]1(C)[C@@H]3C(=O)[C@H](OC(C)=O)[C@@]2(C)[C@H](c3ccoc3)C[C@H]3O[C@]321 [TOOSENDANIN],,,,LC50 at 24 h [3]: < 1 µg/mL
COc1cc([C@H]2OC[C@]3(O)[C@@H](c4ccc(O)c(OC)c4)OC[C@]23O)ccc1O,,,,Activity (MCF7 [6]): Active
COc1cc2c(c(OC)c1OC)-c1c(cc(OC)c(OC)c1OC)C[C@](C)(O)[C@@H](C)C2 [SCHIZANDRIN],,,> 100 µM,IC50 [5]: > 100 µM; IC50 (HeLa): > 100 µM; Activity (MCF7 [7]): Active; LC50 at 24 h [3]: > 100 µg/mL; IC50 (SMMC-7721): > 100 µM
COc1c2c(cc3c1-c1c(cc4c(c1OC)OCO4)C[C@H](C)[C@H](C)C3)OCO2 [SCHISANDRIN C],,,> 100 µM,IC50 [5]: > 100 µM; IC50 (HeLa): > 100 µM; IC50 (SMMC-7721): > 100 µM
COc1cc([C@H]2OC[C@]3(O)[C@@H](c4ccc(O)c(OC)c4)OC[C@H]23)ccc1O,,,,Activity (MCF7 [6]): Active

# Second part, led by results:
inhibition [2],Compound,IC50 ([1]; u-87mg atcc),"IC50 [1, 8]",also measured
36.6%,CCCC(=O)O[C@H]1c2cc(OC)c(OC)c(OC)c2-c2c(cc3c(c2OC)OCO3)C[C@H](C)[C@]1(C)O,Not Active,,
57.8%,CCCCCCC(=O)O[C@H]1c2cc(OC)c(OC)c(OC)c2-c2c(cc3c(c2OC)OCO3)C[C@H](C)[C@]1(C)O,,61.7 µM,
46.9%,CCCCCCCCCC(=O)O[C@H]1c2cc(OC)c(OC)c(OC)c2-c2c(cc3c(c2OC)OCO3)C[C@H](C)[C@]1(C)O,,58.8 µM,
4.8%,CCCCCCCCCCCCCCCC(=O)O[C@H]1c2cc(OC)c(OC)c(OC)c2-c2c(cc3c(c2OC)OCO3)C[C@H](C)[C@]1(C)O,Not Active,,
57.6%,CCCCCCCC(=O)O[C@H]1c2cc(OC)c(OC)c(OC)c2-c2c(cc3c(c2OC)OCO3)C[C@H](C)[C@]1(C)O,Not Active,,
32.7%,CCCCCCCCCCCC(=O)O[C@H]1c2cc(OC)c(OC)c(OC)c2-c2c(cc3c(c2OC)OCO3)C[C@H](C)[C@]1(C)O,,70 µM,
63.7%,CCCCCC(=O)O[C@H]1c2cc(OC)c(OC)c(OC)c2-c2c(cc3c(c2OC)OCO3)C[C@H](C)[C@]1(C)O,,67.4 µM,
1%,COc1cc2c(c(OC)c1OC)-c1c(cc3c(c1OC)OCO3)C[C@H](C)[C@](C)(O)[C@H]2O [SCHISANTHEROL A],Not Active,,
36.3%,CCCCC(=O)O[C@H]1c2cc(OC)c(OC)c(OC)c2-c2c(cc3c(c2OC)OCO3)C[C@H](C)[C@]1(C)O,Not Active,,
21.4%,CCCCCCCCCCCCCC(=O)O[C@H]1c2cc(OC)c(OC)c(OC)c2-c2c(cc3c(c2OC)OCO3)C[C@H](C)[C@]1(C)O,Not Active,,
